Measured values: paper PMC4558462, “A new small molecule inhibitor of soluble guanylate cyclase” (Bioorganic & Medicinal Chemistry, 2015)
“Also recorded” adds a separate entry of the source. Read-outs that look alike come from different tables or passages of the source.

Legend:
membrane-bound GCs (pGC) = biological target: T1, membrane-bound GCs (pGC) (Rattus norvegicus, UniProt P18910); experiment: Particulate guanylate cyclase assay in purified rat lung membranes; type: biochemical
T1 sequence (P18910 29-1057): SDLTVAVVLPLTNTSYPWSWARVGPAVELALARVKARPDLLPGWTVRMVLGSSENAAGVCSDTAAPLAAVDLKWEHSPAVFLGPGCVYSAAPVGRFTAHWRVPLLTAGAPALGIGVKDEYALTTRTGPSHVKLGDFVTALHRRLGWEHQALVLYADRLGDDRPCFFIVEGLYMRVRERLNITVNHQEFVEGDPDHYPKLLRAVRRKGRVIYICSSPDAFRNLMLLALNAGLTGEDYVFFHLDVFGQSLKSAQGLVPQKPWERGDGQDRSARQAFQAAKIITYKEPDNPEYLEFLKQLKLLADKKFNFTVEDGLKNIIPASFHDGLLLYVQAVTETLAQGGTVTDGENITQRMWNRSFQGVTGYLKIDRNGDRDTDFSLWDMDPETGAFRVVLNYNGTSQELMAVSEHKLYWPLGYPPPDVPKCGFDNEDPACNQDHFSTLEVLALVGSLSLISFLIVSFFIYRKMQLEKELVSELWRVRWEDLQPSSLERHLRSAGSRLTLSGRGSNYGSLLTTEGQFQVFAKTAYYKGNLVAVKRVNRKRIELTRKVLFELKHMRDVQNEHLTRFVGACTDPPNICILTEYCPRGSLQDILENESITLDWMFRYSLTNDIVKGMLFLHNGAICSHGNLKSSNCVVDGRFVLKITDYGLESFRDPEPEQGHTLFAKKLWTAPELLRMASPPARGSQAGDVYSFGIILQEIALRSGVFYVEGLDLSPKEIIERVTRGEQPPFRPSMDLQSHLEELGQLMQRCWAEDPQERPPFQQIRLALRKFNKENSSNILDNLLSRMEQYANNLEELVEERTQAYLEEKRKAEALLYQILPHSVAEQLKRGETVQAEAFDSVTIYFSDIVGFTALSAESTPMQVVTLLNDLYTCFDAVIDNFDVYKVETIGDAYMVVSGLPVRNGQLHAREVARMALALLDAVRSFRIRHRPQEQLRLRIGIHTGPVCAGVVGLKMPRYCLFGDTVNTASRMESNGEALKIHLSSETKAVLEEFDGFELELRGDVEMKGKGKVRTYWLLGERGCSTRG
Description: Purified rat lung membranes (20 μg protein/200 μL) were incubated in Tris buffer with 10 mM phosphocreatine, 10 units/mL creatine phosphokinase, and 10 μM ODQ to inhibit NO-activated GC. The reaction took place with 0.3 mM MgCl, 0.5 mM MgATP, and 1 mM MgGTP, at 37 °C. The compound was added and 1 μM ANP used to activate pGC. cGMP formation was allowed to proceed for 10.5–12.5 min and was subsequently measured by radioimmunoassay.

adenylyl cyclase = experiment: Adenylyl cyclase activity (data not shown); type: biochemical
Source text: The sGC heterodimer is composed of a α-subunit and a shorter β-subunit which presents in the N-terminal the prosthetic haem group bound to histidine-105.[27] Each subunit is composed of a haem-nitric oxide binding domain, a PAS-like domain, a coiled-coil bundle, and the C-terminal catalytic domain where turnover of GTP into cGMP occurs.[28] […] The two sites are different, and small molecules can bind to one or to both sites, thus showing a 1:1 or 1:2 binding ratio. We have previously shown by surface plasmon resonance (SPR) that ATP binds to both sites and may inhibit sGC activity via competition with GTP, highlighting the potential for allosteric regulation of the enzyme.[24] GC domains are also present in the membrane-bound natriuretic peptide receptors type-A and type-B. There receptors, also referred to as particulate GCs (pGCs), are activated by binding of natriuretic peptides to the extracellular domain of the receptors, leading to an increase in GTP turnover at the intracellular GC domain.[32–34] In this study we observed by SPR that compound 10 bound to the catalytic domain of sGC in a 1:1 ratio. […] However, activity against kinases or phosphodiesterases was not investigated.

sGCcat = biological target: T2, sGCcat (Homo sapiens, UniProt Q02108+Q02153); experiment: SPR binding to catalytic domain of sGC
T2 construct: a smaller construct of the catalytic domain (sGCcat)
T2 sequence (Q02108 481-608 limits assumed): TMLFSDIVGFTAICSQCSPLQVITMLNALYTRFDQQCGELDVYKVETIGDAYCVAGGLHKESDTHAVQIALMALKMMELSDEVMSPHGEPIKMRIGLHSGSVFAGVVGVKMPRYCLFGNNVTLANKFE
T2 sequence (Q02153 421-554 limits assumed): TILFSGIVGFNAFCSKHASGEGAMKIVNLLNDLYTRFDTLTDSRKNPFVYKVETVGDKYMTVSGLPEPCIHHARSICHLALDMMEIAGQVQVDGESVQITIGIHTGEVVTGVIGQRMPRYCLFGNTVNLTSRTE
Description: We have previously described a surface plasmon resonance-based assay for the detection of binding of small molecules to full-length sGC and a smaller construct of the catalytic domain (sGCcat).[24] This assay was used to measure the binding of the compounds to sGCcat.[24] […] The position of the hydroxyl group can be changed whilst retaining binding strength and activity.
Surface plasmon resonance (SPR) experiments were performed with a Biacore T200 instrument at 25 °C. Data processing and analysis were performed using BIAevaluation software and Scrubber2. All sensorgrams were double referenced by subtracting the response in a reference flowcell and a blank sample. Materials and methods used were the same as previously published.[24]

`O=[N+]([O-])c1ccc2nc(Nc3ccc(O)cc3)c(Nc3ccc(O)cc3)nc2c1` [Compound 10, 4,4′-((6-Nitroquinoxaline-2,3-diyl)bis(azanediyl))diphenol] showed a Hill slope (membrane-bound GCs (pGC); Basal (listed under ANP group)) of 2, an IC50 (membrane-bound GCs (pGC); Basal (listed under ANP group)) of 15 ± 2 µM and a Hill slope (membrane-bound GCs (pGC); GC activator ANP 10 nM) of 2. The IC50 (membrane-bound GCs (pGC); GC activator ANP 10 nM, rat lung membranes, 10 μM ODQ) was 21 ± 3 µM, the Hill slope (membrane-bound GCs (pGC); GC activator ANP 1 μM) was 1 and the IC50 (membrane-bound GCs (pGC); GC activator ANP 1 μM, rat lung membranes, 10 μM ODQ) was 25 ± 13 µM. For the same compound, the “inhibition of pGC-generated cGMP (in words)” value (membrane-bound GCs (pGC); rat lung membranes, atrial natriuretic peptide stimulation, 10 μM ODQ) was “showed inhibition; also recorded: Inhibition of particulate GC was also observed”, the “activity on adenylyl cyclase” value (adenylyl cyclase; basal) was “no activity” and the “activity on adenylyl cyclase” value (adenylyl cyclase; forskolin-stimulated) was “no activity”. The Kd (sGCcat) was 11.4 ± 1.8 µM, the “sGCcat (SPR) binding norm. resp. (RU)” value (sGCcat; Biacore T200, 25 °C) was 14.4 ± 1.7 RU and the “binding to sGCcat (in words)” value (sGCcat; discussion of Table 1) was “higher binding”. It also gave a Kd (sGCcat; listed as D12) of 11 µM.
